From patent publication US10336734B2, “Inhibitors of ACK1/TNK2 tyrosine kinase” (H. LEE MOFFITT CANCER CENTER AND RESEARCH INSTITUTE, INC., priority 2015, dated 2019)

Columns and labels:
C4-2B = assay: Cell viability/proliferation of PC cell lines, C4-2B; format: cell-based; conditions: 96 hr, read-out: IC50, suppression of proliferation
Description: (§1) FIG. 7A through 7F. (R)-9bMS overcome enzalutamide-resistance of CRPCs. […] Data represent mean±s.e.m. (n=3) from one of three independent experiments. […] Data represent mean±s.e.m. (n=3) from one of three independent experiments. […] Data represent mean±standard error of the mean (s.e.m.) (n=3) from one of three independent experiments.*p<0.05. […] Cell cycle analysis of prostate cell lines treated with (R)-9bMS (24 hr).
(§2) To investigate the anti-tumor activity of ACK1 inhibitor, we first analyzed the ability (R)-9bMS to suppress proliferation of PC cell lines.

VCaP = assay: Cell viability/proliferation of PC cell lines, VCaP; format: cell-based; conditions: 96 hr, read-out: IC50, suppression of proliferation
Description: as §1, §2

LAPC4 = assay: Cell viability/proliferation of PC cell lines, LAPC4; format: cell-based; conditions: LAPC4, 96 hr; read-out: IC50, suppression of proliferation
Description: as §1, §2

LNCaP = assay: Cell viability/proliferation of PC cell lines, LNCaP; format: cell-based; conditions: 96 hr, read-out: IC50, suppression of proliferation
Description: as §1, §2

[1] = test system: enzalutamide-resistant C4-2B cell line; assay: Cell viability and AR expression, enzalutamide-resistant C4-2B cells; format: cell-based
Description: as §1, with “7F.” for “7F. (R)-9bMS overcome enzalutamide-resistance of CRPCs.”

C4-2B xenograft tumors = assay: C4-2B CRPC xenograft in castrated SCID mice; format: in vivo
Description: FIG. 8A through 8F. (R)-9bMS mitigates CRPC tumor growth. […] Once formed palpable tumors, mice were injected with vehicle (10% DMSO in PBS) or (R)-9bMS (50 mg/kg of body) for 6 days a week for five weeks (n=9 mice for each treatment). Tumor volumes were measured. Data represent mean±s.e.m. […] Data represent mean±standard error of the mean (s.e.m.) (n=3) from one of three independent experiments. **p<0.01.
To investigate the effect of (R)-9bMS on CRPC xenograft tumor growth, C4-2B cells were implanted in castrated SCID mice.

[2] = test system: LNCaP-caAck xenograft tumors; assay: LNCaP-caAck xenograft in castrated SCID mice; format: in vivo; conditions: 50 mg/kg, 6 days a week for four weeks
Description: FIG. 9. ACK1 inhibitor (R)-9bMS suppresses xenograft tumor growth in castrated mice. Male SCID mice were castrated and injected with LNCaP-caAck cells. Once mice formed palpable tumors, mice were injected with vehicle (10% DMSO in PBS) or (R)-9bMS (50 mg/kg of body) for 6 days a week for four weeks (n=7 mice for each treatment). Tumor volumes were measured.

AR-V7 = AR-V7 mRNA (qRT-PCR) and variant protein (immunoblot) in PC cells; format: cell-based; conditions: VCaP 3.5 μM, 16 hr; VCaP and LAPC4 immunoblot
Description: FIG. 1A through 1F. Inhibition of ACK1 kinase activity by (R)-9bMS (DZ1-067 mesylate salt) suppresses AR and AR-V7 expression. […] Data represent mean±s.e.m. (n=3) from one of three independent experiments. *p<0.05. FIG. 1B and FIG. 1C show immunoblot analysis of androgen-deprived VCaP and LAPC4 cells treated with (R)-9bMS. […] FIG. 1E and FIG. 1F show qRT-PCR analysis of AR and PSA in PC3 cells transfected with caACK or kdACK constructs. Data represent mean±s.e.m. (n=3) from one of three independent experiments. **p<0.01.
We assessed AR-V7 mRNA levels upon treatment with (R)-9bMS (DZ1-067 mesylate salt).

[3] = test system: histone H4 Y88-phosphorylation; assay: Immunoblot of H4 Y88-phosphorylation in ligand-treated PC cells; format: cell-based; conditions: serum and androgen starved PC cells, ligand activated; 5 μM (DHT 10 nM)
Description: FIG. 2A through 2C. ACK1 inhibitor (R)-9bMS suppresses epigenetic modification of histone H4 at tyrosine 88.
To assess endogenous H4-phosphorylation, serum and androgen starved PC cells were treated with ligands to activate ACK1. It led to robust H4 Y88-phosphorylation, suppressed upon (R)-9bMS treatment (FIG. 2A). […] Moreover, H4 Y88-phosphorylation was also detected in human CRPCs using mass spectrometry, which was validated by immunoblotting (FIG. 3A-3C).

[4] = test system: pY88-H4 epigenetic marks upstream of AR gene; assay: ChIP-qPCR at AREM1-3 sites in C4-2B cells; format: cell-based
Description: FIG. 5A through 5J. AR transcription is regulated by epigenetic modification of histone H4 at tyrosine 88 is sensitized byc(R)-9bMS. FIG. 5A through 5D show ChIP with pY88-H4 antibodies, followed by qPCR using primers corresponding to AREM1-3 and control (gene desert) sites of C4-2B cells treated with (R)-9bMS. Data represent mean±s.e.m. (n=3) from one of three independent experiments. **p<0.01. […] Data represent mean±s.e.m. (n=3) from one of three independent experiments. *p<0.05, **p<0.01. FIGS. 5F and 5G show ChIP with pY88-H4 antibodies, followed by qPCR using primers corresponding to AREM2 and AREM1 site of C4-2B cells transfected with ACK1, AR and control siRNA. Data represent mean±s.e.m. (n=3) from one of three independent experiments. *p<0.05, **p<0.01. […] Data represent mean±s.e.m. (n=3) from one of three independent experiments. *p<0.05. FIGS. 5I and 5J show qRT-PCR analysis of AR and PSA in LAPC4 cells transfected with FLAG-tagged H4 or Y88F mutant H4 expressing constructs. Data represent mean±s.e.m. (n=3) from one of three independent experiments.*p<0.05, **p<0.01.
FIG. 6A through 6F. Recruitment of the MLL2/WDR5 complex and deposition of H3K4me3 epigenetic marks upstream of the AR gen can be erased by (R)-9bMS. […]

PC cells = assay: Cell cycle and apoptosis of PC cells; format: cell-based
Description: as §1, §2

[5] = 50 mg/kg, 6 days a week for five weeks

IC50 (VCaP): 450 nM | IC50 (LNCaP): 1800 nM | Organ histology (H&E) (C4-2B xenograft tumors; 50 mg/kg): histologically normal
Compound: CN1CCN(c2ccc(Nc3ncc(Cl)c(NC[C@H]4CCCO4)n3)cc2)CC1 [(R)-9bMS]
IC50 (C4-2B): 400 nM | IC50 (LAPC4): 750 nM | Sensitivity of enzalutamide-resistant cells ([1]; enzalutamide-resistant C4-2B cells, 96 hr): retained sensitivity | AR expression in enzalutamide-resistant cells ([1]; immunoblot): able to suppress AR expression | body weights (C4-2B xenograft tumors; 50 mg/kg): no statistical difference | CRPC tumor growth (C4-2B xenograft tumors; [5]): significant decrease | tumor weight (C4-2B xenograft tumors; [5]): significant decrease | AR, PSA & TMPRSS2 mRNAs levels in tumors (C4-2B xenograft tumors; qRT-PCR of xenograft tumors): significant reduction | Xenograft tumor growth [2]: displayed sensitivity | AR-V7 mRNA and variant protein levels (AR-V7): significantly reduced | H4 Y88-phosphorylation [3]: suppressed | pY88-H4 marks at AREM1-3 sites ([4]; ChIP real time PCR): erased | WDR5, MLL2, H3K4me3 methyl marks and RNA Pol II at AREM1-3 sites ([4]; absence of androgen): significantly reduced | Cell cycle (PC cells; 24 hr): arrest PC cells in G2 phase | Apoptosis (PC cells; C4-2B cells): inducing apoptosis
